The experiment can be described thus: Inhibition of human recombinant caspase-3 expressed in Saccharomyces cerevisiae CG379 assessed as growth stimulation after 2 days.

For `CC(C)[C@H](NC(=O)OCc1ccccc1)C(=O)N[C@H](C=CS(C)(=O)=O)CC(=O)O` [(S)-3-((S)-2-(benzyloxycarbonylamino)-3-methylbutanamido)-5-(methylsulfonyl)pent-4-enoic acid], the IC50 amounted to 35.3 µM.

The values are drawn from BindingDB's records for doi:10.1016/j.ejmech.2011.02.067 (University of Lisbon, 2011).
